The subject of experiment [1] is IL-2 production in normal human CD4+T cell. The experiment is described as follows: IL-2 production inhibitory action evaluation test (anti-CD3/CD28 antibody stimulation, ELISA). The format is cell-based. The following applies: anti-CD3/CD28, 24 hours, read-out: IL-2 production inhibitory ratio (% of 1 μM). On the procedure:
In order to evaluate an action of the present compound as a GR agonist, IL-2 and IL-4 production inhibitory actions in a normal human CD4^+T cell after stimulation by an anti-CD3/CD28 antibody were investigated. For the measurement of the IL-2 and IL-4 production amounts, the ELISA method (manufactured by R&D Systems, Cat No. D2050, HS400) was used, and a procedure was carried out according to the protocol attached thereto. Hereinafter, the specific method will be described.
Dynabeads (Registered Trademark) Human T-Activator CD3/CD28 (4×10^7 beads/mL) (Dynabeads) was used, and prepared according to the protocol attached thereto.
After the test compound was dissolved in dimethylsulfoxide, the solution was diluted with an RPMI medium to prepare 400 μM of a test compound solution. The solution was diluted with a 4% dimethylsulfoxide-containing RPMI medium to prepare 40 μM of a test compound solution.
Used cells: normal peripheral blood human CD4^+T cell (human CD4^+T cell) (Lonza)
• 1) Frozen human CD4^+T cells were thawed in a warm water bath at 37° C., and added to an RPMI medium (RPMI 1640 containing 10% FBS, 100 U/mL of Penicillin, and […] of Streptomycin). • 2) The above suspension was recovered and centrifuged at 900 rpm for 10 minutes to give a cell sediment. • 3) The cell sediment was suspended in an RPMI medium and the operation of 2) was carried out. • 4) The cell sediment was adjusted to 4×10^5 cells/mL with an RPMI medium. • 5) The above suspension was cultured in a CO2 incubator (temperature: 37° C., CO2 concentration: 5%) for 1 hour or longer. (Test Method and Measurement Method) • 1) The cultured human CD4^+T cells were recovered and the cells were seeded in 96-well flat bottom culture plates at each 8.0×10^4 cells/0.2 mL/well. • 2) The test compound solution was added with each 5 μL/well. • 3) The prepared Dynabeads were added with each 2 μL/well. • 4) The sample in which 4% dimethylsulfoxide-containing RPMI medium was added with each 5 μL/well in place of each test compound solution, and the RPMI medium was added with each 2 μL/well in place of the Dynabeads was made a negative control. • 5) The sample in which 4% dimethylsulfoxide-containing RPMI medium was added with each 5 μL/well in place of each test compound solution was made a positive control. • 6) After completion of 24 hours cultivation, the supernatant was recovered and the amounts of IL-2 and IL-4 released in the supernatant was measured by using an ELISA Kit. • 7) The IL-2 and IL-4 production inhibitory ratios were calculated according to the following calculation formula. (Calculation of IL-2 and IL-4 Production Inhibitory Ratios)
The IL-2 and IL-4 production inhibitory ratios (%) were calculated by the following formula, respectively. IL-2 or IL-4 production inhibitory ratio (%)=100×{1−(IL-2 or IL-4 production amounts of each test compound solution−average value of IL-2 or IL-4 production amount of negative control group)/(average value of IL-2 or IL-4 production amount of positive control group−average value of IL-2 or IL-4 production amount of negative control group)}(%) (Test Result and Consideration)
For orientation: In an ELISA, binding on a coated surface is turned into a signal by an enzyme label.

Experiment [2] deals with MCP-1 production in human monocyte cell (THP-1). The experiment can be described thus: MCP-1 production inhibitory action evaluation test (LPS stimulation, ELISA). The format is cell-based. Particulars: THP-1, LPS, 18 hours. On the procedure:
In order to evaluate an action of the present compound as a GR agonist, an MCP-1 production inhibitory action in human monocyte cell after stimulation by LPS was investigated. For the measurement of the MCP-1 production amount in the sample, the ELISA method (manufactured by R&D Systems, Cat No. DCP00) was used, and a procedure was carried out according to the protocol attached thereto. Hereinafter, the specific method will be described.
LPS solution: After LPS was dissolved in PBS(−), the solution was diluted with 10% FBS-containing RPMI 1640 to prepare an LPS solution with a 40 μg/mL concentration.
After the test compound was dissolved in dimethylsulfoxide, the solution was diluted with an RPMI medium to prepare 400 μM of a test compound solution. The solution was diluted with a 4% dimethylsulfoxide-containing RPMI 1640 medium to prepare 40 μM of a test compound solution.
Used cells: human monocyte cell (THP-1) (ATCC)
• 1) Subcultured THP-1 was recovered and centrifuged at 1,100 rpm for 5 minutes to give a cell sediment. • 2) An RPMI medium (RPMI 1640 containing 10% FBS, 100 U/mL of penicillin, 100 μg/mL of streptomycin, 55 μM of 2-Mercaptoethanol, 10 ng/mL of human EGF, and 40 μg/mL of gentamicin) was added. • 3) The above suspension was seeded in a culture flask and cultured in a CO2 incubator (temperature: 37° C., CO2 concentration: 5%). The cells continued to subculture according to this method were used for the test. (Test Method and Measurement Method) • 1) The subcultured THP-1 was recovered and the cells were each seeded at 1.9×10^5 cells/0.19 mL/well in a 96-well round bottom culture plate. • 2) The test compound solution was added with each 5 μL/well and cultured for 2 hours. • 3) LPS solution was added with each 5 μL/well. • 4) The sample to which 4% dimethylsulfoxide-containing RPMI medium was added with each 5 μL/well in place of each test compound solution, and 10% FBS-RPMI 1640 was added with each 5 μL/well in place of the LPS solution was made a negative control. • 5) The sample to 4% dimethylsulfoxide-containing RPMI medium was added with each 5 μL/well in place of each test compound solution was made a positive control. • 6) After completion of 18 hours cultivation, the supernatant was recovered and the amount of MCP-1 released in the supernatant was measured by using an ELISA Kit. • 7) The MCP-1 production inhibitory ratio was calculated according to the following calculation formula. (Calculation of MCP-1 Production Inhibitory Ratio)
MCP-1 production inhibitory ratio (%) was calculated by the following formula. […]

`COc1cc(OC[C@@H](O)CCO)ccc1-c1ccc2c(c1COc1cc(F)ccc1C)N(C)C(=O)C(C)(C)N2` [Compound 2-1, (S)-7-[4-(2,4-dihydroxybutyl)oxy-2-methoxyphenyl]-8-(5-fluoro-2-methyl-phenoxymethyl)-1,3,3-trimethyl-3,4-dihydro-1H-quinoxalin-2-one]: in experiment [1], the inhibition at 1 µM came out at 79%.

Take `COc1ccc(CO)cc1-c1ccc2c(c1COc1cc(F)ccc1C)N(C)C(=O)C(C)(C)N2` [Control compound B, 8-(5-fluoro-2-methylphenoxymethyl)-7-(5-hydroxymethyl-2-methoxyphenyl)-1,3,3-trimethyl-3,4-dihydro-1H-quinoxalin-2-one, reference compound]: the inhibition at 1 µM in experiment [1] was found to be 35%.

On to `COc1ccc(O)cc1-c1ccc2c(c1COc1cc(F)ccc1C)N(C)C(=O)C(C)(C)N2` [Control compound C, 8-(5-fluoro-2-methylphenoxymethyl)-7-(5-hydroxy-2-methoxyphenyl)-1,3,3-trimethyl-3,4-dihydro-1H-quinoxalin-2-one], for which the inhibition at 1 µM in experiment [1] was 26%. Moreover, the “MCP-1 production inhibitory ratio (% of 1 μM)” value in experiment [2] turned out to be 65%.

Regarding `CCCC(=O)Oc1ccc(-c2ccc3c(c2COc2cc(F)ccc2C)N(C)C(=O)C(C)(C)N3)c(OC)c1` [Control compound D, 7-(4-butyryloxy-2-methoxyphenyl)-8-(5-fluoro-2-methylphenoxymethyl)-1,3,3-trimethyl-3,4-dihydro-1H-quinoxalin-2-one, reference compound], the inhibition at 1 µM in experiment [1] was less than 0%.

For `COc1cc(OC[C@H](C)O)ccc1-c1ccc2c(c1COc1cc(F)ccc1C)N(C)C(=O)C(C)(C)N2` [Compound 1-1, (S)-8-(5-fluoro-2-methylphenoxymethyl)-7-[4-(2-hydroxypropyl)oxy-2-methoxy-phenyl]-1,3,3-trimethyl-3,4-dihydro-1H-quinoxalin-2-one], the inhibition at 1 µM in experiment [1] was determined as 73%.

As for `COc1cc(OC[C@H](C)OC(=O)CN(C)C)ccc1-c1ccc2c(c1COc1cc(F)ccc1C)N(C)C(=O)C(C)(C)N2` [Compound 11-1, (S)-7-[4-[2-(N,N-dimethylaminoacetoxy)propyl]oxy-2-methoxyphenyl]-8-(5-fluoro-2-methylphenoxymethyl)-1,3,3-trimethyl-3,4-dihydro-1H-quinoxalin-2-one], the inhibition at 1 µM in experiment [1] is 72%. For the same compound, the “MCP-1 production inhibitory ratio (% of 1 μM)” value in experiment [2] turned out to be 88%.

For `COc1ccc(-c2ccc3c(c2COc2cc(F)ccc2C)N(C)C(=O)C(C)(C)N3)c(OC)c1` [Control compound E, 7-(2,4-dimethoxyphenyl)-8-(5-fluoro-2-methyl-phenoxymethyl)-1,3,3-trimethyl-3,4-dihydro-1H-quinoxalin-2-one, reference compound], in experiment [1], the inhibition at 1 µM was less than 0%. The “MCP-1 production inhibitory ratio (% of 1 μM)” value in experiment [2] was 40%.

In the case of `COCOc1ccc(-c2ccc3c(c2COc2cc(F)ccc2C)N(C)C(=O)C(C)(C)N3)c(OC)c1` [Control compound F, 8-(5-fluoro-2-methylphenoxymethyl)-7-(2-methoxy-4-methoxymethoxyphenyl)-1,3,3-trimethyl-3,4-dihydro-1H-quinoxalin-2-one, reference compound], the inhibition at 1 µM in experiment [1] was less than 0%. Also, the “MCP-1 production inhibitory ratio (% of 1 μM)” value in experiment [2] was 27%.

For the origin of these results see patent US10189796B2, “[4-(1,3,3-trimethyl-2-oxo-3,4-dihydro-1H-quinoxalin-7-yl)phenoxy]ethyloxy compound or salt thereof” (SANTEN PHARMACEUTICAL CO., LTD., priority 2015, dated 2019).
